Earlier results as cited in publication PMC9788431, “Combination of Docking-Based and Pharmacophore-Based Virtual Screening Identifies Novel Agonists That Target the Urotensin Receptor” (Molecules, 2022).
Several values for one entry are separate records, joined by “and”; a condition that tells them apart may be missing. Identical values can stand only once.

Target: T1, UT receptor (Homo sapiens, UniProt Q9UKP6)
T1 construct: SNAP-tag; expressed in transfected cells; host or cells: 293A8 (HEK293A stably transfected with the UT receptor); inferred, the calcium-assay paragraph names no cells
T1 sequence (Q9UKP6 1-389): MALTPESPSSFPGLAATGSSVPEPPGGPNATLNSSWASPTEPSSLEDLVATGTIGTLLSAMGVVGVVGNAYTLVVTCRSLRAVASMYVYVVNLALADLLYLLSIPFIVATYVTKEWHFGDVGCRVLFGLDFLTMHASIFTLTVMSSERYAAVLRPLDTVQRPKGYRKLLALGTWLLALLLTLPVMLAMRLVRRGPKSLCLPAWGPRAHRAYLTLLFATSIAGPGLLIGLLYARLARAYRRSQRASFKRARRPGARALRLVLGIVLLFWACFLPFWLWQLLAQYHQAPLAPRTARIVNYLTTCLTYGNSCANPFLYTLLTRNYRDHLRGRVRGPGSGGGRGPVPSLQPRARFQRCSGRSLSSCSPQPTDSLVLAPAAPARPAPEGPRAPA
Set-up: method as in ChEMBL database and others
Details: antagonist; Table S1 benchmarking ligands; ref ChEMBL database and others; cited from earlier work

Row | Structure (SMILES) | IC50
1 | O=C(N[C@H]1CCN(Cc2ccc(OC3CCNCC3)c(Br)c2)C1)c1ccc(Cl)c(Cl)c1 [CHEMBL495075] | 4 nM
2 | COc1ccc([C@@H](CCCN(C)S(=O)(=O)c2cccs2)N2Cc3c(cccc3N3CCNCC3)C2=O)cc1OC [CHEMBL565416] | 410 nM
3 | COc1ccc([C@H](CCCNS(=O)(=O)c2cccs2)N2C(=O)c3cccc(N4CCN([C@H](C)c5ccccc5)CC4)c3C2=O)cc1OC [CHEMBL565580] | 260 nM
4 | COc1ccc([C@@H](CCCNS(=O)(=O)c2cccs2)N2C(=O)c3cccc(N4CCNCC4)c3C2=O)cc1OC [CHEMBL566366] | 500 nM
5 | CCN1CCN(c2cccc3c2C(=O)N([C@H](CCCNS(=O)(=O)c2cccs2)c2ccc(OC)c(OC)c2)C3=O)CC1 [CHEMBL566433] | 150 nM
6 | CCN1CCN(c2cccc3c2CN([C@H](CCCNC(=O)c2cccs2)c2ccc(OC)c(OC)c2)C3=O)CC1 [CHEMBL567075] | 140 nM
7 | CCN1CCN(c2cccc3c2CN([C@H](CCCNS(=O)(=O)c2cccs2)c2ccc(OC)c(OC)c2)C3=O)CC1 [CHEMBL567713] | 8 nM
8 | COc1ccc([C@@H](CCCNS(=O)(=O)c2cccs2)N2C(=O)c3cccc(N4CCN(C(C)C)CC4)c3C2=O)cc1OC [CHEMBL567736] | 150 nM
9 | COc1ccc([C@@H](CCCNS(=O)(=O)c2c(C)n[nH]c2C)N2C(=O)c3cccc(N4CCN([C@H](C)c5ccccc5)CC4)c3C2=O)cc1OC [CHEMBL567759] | 47 nM
10 | COc1ccc([C@@H](CCCNS(=O)(=O)c2cccs2)N2C(=O)c3cccc(N4CCN(C)CC4)c3C2=O)cc1OC [CHEMBL567949] | 220 nM
11 | CCN1CCN(c2cccc3c2CN([C@H](CCCNCc2cccs2)c2ccc(OC)c(OC)c2)C3=O)CC1 [CHEMBL568123] | 59 nM
12 | COc1ccc([C@@H](CCCNS(=O)(=O)c2cccs2)N2C(=O)c3cccc(N4CCN([C@H](C)c5ccccc5)CC4)c3C2=O)cc1OC [CHEMBL568165] | 240 nM
13 | COc1ccc([C@@H](CCCNS(=O)(=O)c2cccs2)N2Cc3c(cccc3N3CCN(C(C)C)CC3)C2=O)cc1OC [CHEMBL568637] | 53 nM
14 | COc1ccc([C@@H](CCCNC(=O)c2cnoc2C)N2C(=O)c3cccc(N4CCN([C@H](C)c5ccccc5)CC4)c3C2=O)cc1OC [CHEMBL568764] | 760 nM
15 | CCN1CCN(c2cccc3c2CN([C@H](CCCN(C)S(=O)(=O)c2cccs2)c2ccc(OC)c(OC)c2)C3=O)CC1 [CHEMBL571535] | 88 nM
16 | COc1ccc([C@@H](CCCN(C)S(=O)(=O)c2cccs2)N2Cc3c(cccc3N3CCN(C4CCC4)CC3)C2=O)cc1OC [CHEMBL571537] | 510 nM
17 | COc1ccc([C@@H](CCCN(C)S(=O)(=O)c2cccs2)N2Cc3c(cccc3N3CCN(C(C)C)CC3)C2=O)cc1OC [CHEMBL578203] | 500 nM
18 | CCN1CCN(c2cccc3c2CN([C@H](CCCNS(=O)(=O)c2c[nH]cn2)c2ccc(OC)c(OC)c2)C3=O)CC1 [CHEMBL578207] | 51 nM
19 | COc1cc2c(cc1OC)C(CCc1cc(F)ccc1F)N(CCNC(=O)Nc1cc(C)nc3ccccc13)CC2 (stereo not drawn) [CHEMBL1163360] | 67 nM
20 | Cc1cc(NC(=O)NCCN2CCC(O)(Cc3ccccc3)CC2)c2ccccc2n1 [CHEMBL1164032] | 3.6 nM
21 | COc1cc(Br)c(S(=O)(=O)Nc2ccc(Cl)c(O[C@@H]3CCN(C)C3)c2)cc1OC [CHEMBL2348501] | 43 nM
22 | COc1cc(Br)c([S+]([O-])Cc2ccc(Cl)c(O[C@@H]3CCN(C)C3)c2)cc1OC (stereo partly drawn) [CHEMBL2348504] | 245 nM
23 | COc1cc(Br)c(SCc2ccc(Cl)c(O[C@@H]3CCN(C)C3)c2)cc1OC [CHEMBL2348505] | 440 nM
24 | COc1cc(Br)c(CNc2ccc(C(F)(F)F)c(O[C@H]3CCN(C)C3)c2)cc1OC [CHEMBL2348511] | 191 nM
25 | CN1CC[C@H](Oc2cc(NCc3ccccc3Br)ccc2C(F)(F)F)C1 [CHEMBL2348514] | 821 nM
26 | CN(C)CCOc1cc(NCc2ccccc2C(F)(F)F)ccc1Cl [CHEMBL2348515] | 520 nM and 765 nM
27 | COc1cccc(CNc2ccc(C(F)(F)F)c(O[C@H]3CCN(C)C3)c2)c1 [CHEMBL2348517] | 691 nM
